One data set relates to S. aureus strain Newman. Kind of data set: S. aureus model of systemic infection in the mouse. To be noted: CD-1 female mice, i.p. 10^7 CFU S. aureus Newman; oral gavage 15 mg/kg at 1 hour post-infection; kidneys 5 hours after inoculation; FIG. 3. In kind it is in vivo, Staphylococcus aureus. Here is the method:
In vivo efficacy. The antimicrobial activity of compounds was also evaluated in a S. aureus model of systemic infection in the mouse. To produce the systemic infection, CD-1 female mice (20 g) were injected intra-peritoneally with 10^7 CFU of S. aureus strain Newman suspended in 0.5 ml of endotoxin-free PBS containing 5% mucin (w/v). The compounds were administrated by oral gavage (15 mg/kg) at 1 hour post-infection and kidneys harvested and pooled, for each animal, 5 hours after bacterial inoculation. Tissues were homogenized in PBS and homogenates serially diluted and plated for CFU determination.

For data set [1], the system named is B. cereus, B. subtilis and B. atrophaeus. Kind of data set: MIC broth microdilution, Bacillus species. The format is cell-based. To be noted: three Bacillus species (B. cereus, B. subtilis and B. atrophaeus); data not shown. Here is the method: Minimal Inhibitory Concentration (MIC) Determination. Bacteria (primary strain panel, TABLE 1). Susceptibility tests were performed following the recommendations from the National Committee for Clinical Standards (NCCLS). The MICs were determined by a broth microdilution technique using a final volume of 100 μl of cation-adjusted Mueller Hinton Broth (MHBCA) and a bacterial inoculum of 10^5-10^6 Colony Forming Units (CFU)/ml. The inocula were verified and precisely determined by applying 10-μl drops of 10-fold dilutions onto Triptic Soy Agar plates. The CFU were counted after an incubation of 24 h at 35° C. Any experiment showing an inoculum that was more or less than 10^5-10^6 CFU/ml was rejected. Control antibiotics and test compounds were prepared at a concentration equivalent to 2-fold the highest desired final concentration. Compounds were then diluted directly in the 96-well microtiter plates by serial 2-fold dilutions using a multichannel pipette. Microtiter plates were incubated during 24 h at 35° C. and growth was recorded by using a microtiterplate reader at 650 nm as well as by visual observation. The MIC was defined as the lowest concentration of compound yielding no visible growth. […] Fastidious bacteria. The medium used for Listeria monocytogenes, Neisseria meningitidis, and Campylobacter jejuni was MHBCA containing 2% laked horse blood. […]

For a further data set, the system named is E. faecium VanA. Nature of the data set: MIC broth microdilution, antibiotic resistant strain panel. Conditions: Enterococcus faecium; multi-resistant E. faecium VanA; read-out: MIC. In kind it is cell-based. The method in brief: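 Susceptibility determined in cation-adjusted Mueller Hinton broth using serial twofold compound dilutions and a verified 10^5-10^6 CFU/ml inoculum.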

Data set [2] deals with B. catarrhalis ATCC 8176. Kind of data set: MIC broth microdilution (NCCLS), fastidious bacteria. In kind it is cell-based, Branhamella (Moraxella) catarrhalis. To be noted: Moraxella catarrhalis, ATCC8176, HTM, 5% CO2. In short, it runs like this: (§1)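 Susceptibility by NCCLS microdilution: checked inoculum 10^5-10^6 CFU/ml, 24 h at 35° C, and growth assessed at 650 nm and by eye. Haemophilus was tested in HTM medium and Listeria with laked horse blood, each incubated under 5% CO2.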

Another data set deals with S. aureus MRSA COL. Nature of the data set: Time-kill curves. The format is cell-based, Staphylococcus aureus. To be noted: data not shown. Here is the method: (§2) Time-kill curves. The bactericidal action of compounds was also evaluated over time (time-kill curve experiments). A bacterial inoculum of 1×10^5-1×10^7 Colony Forming Units (CFU)/ml was prepared. The inocula were verified and precisely determined by applying 10-μl drops of 10-fold dilutions onto Triptic Soy Agar plates. The CFU were counted after an incubation of 24 h at 35° C. Any experiment showing an inoculum that was more or less than the desired range of CFU/ml was rejected. Time-kill curve experiments were performed in 30 ml of MHB placed in 50-ml shaking flasks over a period of 24 hours. Test compounds and control antibiotics were added at time 0 hour and, at each time point, a sample was removed from flasks and the CFU determined by plate counts as described above. CFU from compound-treated cultures were compared to CFU collected from the control flask without antibiotic. Test compounds and control antibiotics were assayed at the MIC or a multiple of the MIC as determined by a broth microdilution technique as described above.

In the next data set the test system is S. aureus ATCC 29213. Nature of the data set: Time-kill curves. In kind it is cell-based, Staphylococcus aureus. To be noted: at their respective MIC or a multiple of the MIC. Here is the method: as §2
For data set [3], the system named is B. catarrhalis ATCC 8176. Kind of data set: Minimal Bactericidal Concentration (MBC). Conditions: Moraxella catarrhalis, ATCC8176, 99.9% killing. The format is cell-based, Branhamella (Moraxella) catarrhalis. In short, it runs like this: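 Bactericidal endpoint follows the MIC read: aliquots of every well without visible growth, no fewer than five, go onto TSA. Incubation lasts exactly 24 h at 35° C. Surviving colonies are then counted.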

The next data set in a line: Solubility in water. In kind it is physicochemical. To be noted: read-out: solubility in water (no visible particles). Here is the method: Solubility of Compounds V and XV. The extent of solubility of compounds was evaluated in water.
The test system of the next data set is H. influenzae ATCC 49766. Nature of the data set: MIC broth microdilution (NCCLS), fastidious bacteria. In kind it is cell-based. Conditions: Haemophilus influenzae, ATCC49766, HTM, 5% CO2. The method in brief:
as §1

In another data set the test system is H. influenzae ATCC 49247. The description is as above. In kind it is cell-based. To be noted: Haemophilus influenzae, ATCC49247, HTM, 5% CO2. In short, it runs like this: as §1
Data set [4] concerns L. monocytogenes ATCC 13932. Described as above. The format is cell-based. To be noted: Listeria monocytogenes, ATCC13932, MHBCA with 2% laked horse blood, 5% CO2. In short, it runs like this: as §1
Another data set relates to C. jejuni ATCC 33291. The data set is described as above. The format is cell-based. Conditions: Campylobacter jejuni, ATCC33291; C. jejuni ATCC 33291; MHBCA with 2% laked horse blood, 5% CO2; read-out: MIC. In short, it runs like this:
as §1

A further data set concerns E. coli ATCC 25922. Kind of data set: Time-kill curves. The format is cell-based, Escherichia coli. Here is the method: as §2

In brackets after ≈: the same amount, converted by molar mass.

Take `O=[N+]([O-])c1ccc(C=Cc2nc(Nc3ccc(O)cc3)c3cc(F)ccc3n2)o1` [Compound V, 6-fluoro-2-[2-(5-nitro-2-furyl)vinyl]-4-(p-hydroxyanilino)-quinazoline]: the “viable bacteria in the kidneys” value in the data set on S. aureus strain Newman was “reduced significantly”. Also, the MIC was 0.03 to 0.125 µg/mL (≈ 0.0765 to 0.319 µM) in data set [1]; 0.03 µg/mL (≈ 0.0765 µM) in the data set with E. faecium VanA; 0.008 µg/mL (≈ 0.0204 µM) with B. catarrhalis ATCC 8176 [2]; 0.06 µg/mL (≈ 0.153 µM) against H. influenzae ATCC 49766; 0.03 µg/mL (≈ 0.0765 µM) with H. influenzae ATCC 49247; 0.03 to 0.25 µg/mL (≈ 0.0765 to 0.637 µM) in [4]. The MIC in the data set on C. jejuni ATCC 33291 came out at 0.016 µg/mL (≈ 0.0408 µM). In the data set on S. aureus MRSA COL, the “bactericidal action (time-kill)” value is on record as “similarly bactericidal”. Further, the “bactericidal action compared with ciprofloxacin (time-kill)” value is listed as “superior to ciprofloxacin” in the data set with S. aureus ATCC 29213 and “superior to ciprofloxacin” with E. coli ATCC 25922 (E. coli, at their respective MIC or a multiple of the MIC). For the same compound, in the data set with B. catarrhalis ATCC 8176 [3], the MBC worked out at 0.03 µg/mL (≈ 0.0765 µM). Further, the solubility in “Solubility in water” is 250 µg/mL (≈ 637 µM). Also, the “time to strongly bactericidal action (time-kill)” value in the data set with E. coli ATCC 25922 (E. coli ATCC 25922, at the MIC or a multiple of the MIC, FIG. 2) was ≤ 2 h.
